Reference: the NIST ThermoML archive (doi:10.1021/je500239t)
“And” between values parts separate entries of the source, which are not always exact repeats. Equal entries are not always repeated. ± gives the expanded uncertainty stated by the source.

Conditions: for mass density: Liquid, isochoric method; for surface tension liquid-gas: Ring tensiometer

CCCCCCn1cc[n+](C)c1.F[P-](F)(F)(F)(F)F [1-hexyl-3-methylimidazolium hexafluorophosphate]
Conditions | mass density [kg/m3]
220.78 K, 20693 kPa | 1364.2 ± 1.8
221.31 K, 2190 kPa | 1355.99 ± 1.8
226.3 K, 10334 kPa | 1355.5 ± 1.8
226.34 K, 30167 kPa | 1363.64 ± 1.8
232.2 K, 39852 kPa | 1363.05 ± 1.8
232.44 K, 20355 kPa | 1354.89 ± 1.8
232.75 K, 1468.4 kPa | 1346.06 ± 1.8
238.32 K, 29843 kPa | 1354.3 ± 1.8
238.38 K, 10065 kPa | 1345.53 ± 1.8
239.11 K, 50924 kPa | 1362.36 ± 1.8
244.53 K, 39522 kPa | 1353.69 ± 1.8
244.58 K, 20078 kPa | 1345.49 ± 1.8
244.91 K, 1121.9 kPa | 1336.19 ± 1.8
250.82 K, 49360 kPa | 1353.07 ± 1.8
251.03 K, 10204 kPa | 1335.6 ± 1.8
251.05 K, 29930 kPa | 1344.61 ± 1.8
257.33 K, 19488 kPa | 1335.01 ± 1.8
257.74 K, 40140 kPa | 1344.21 ± 1.8
258.25 K, 1630.4 kPa | 1325.22 ± 1.8
264.3 K, 29775 kPa | 1334.34 ± 1.8
264.31 K, 10326 kPa | 1324.65 ± 1.8
264.31 K, 29966 kPa | 1334.29 ± 1.8
264.82 K, 50312 kPa | 1343.28 ± 1.8
271.12 K, 19945 kPa | 1324.01 ± 1.8
271.72 K, 40378 kPa | 1333.63 ± 1.8
272.25 K, 1996.3 kPa | 1314.31 ± 1.8
277.88 K, 100 kPa | 1308.85 ± 0.56
278.37 K, 29980 kPa | 1323.33 ± 1.8
278.39 K, 10230 kPa | 1313.74 ± 1.8
278.81 K, 49975 kPa | 1332.93 ± 1.8
283.3 K, 100 kPa | 1304.78 ± 0.56
285.6 K, 39832 kPa | 1322.66 ± 1.8
285.88 K, 20217 kPa | 1313.06 ± 1.8
285.98 K, 1730.8 kPa | 1302.58 ± 1.8
288.37 K, 100 kPa | 1300.82 ± 0.56
293.01 K, 100 kPa | 1296.84 ± 0.56
293.33 K, 11116 kPa | 1301.92 ± 1.8
293.38 K, 30030 kPa | 1312.37 ± 1.8
294.3 K, 49916 kPa | 1321.89 ± 1.8
298.16 K, 127.6 kPa | 1293.38 ± 1.8
298.21 K, 100 kPa | 1293.14 ± 0.56
300.72 K, 20089 kPa | 1301.27 ± 1.8
301.06 K, 39951 kPa | 1311.66 ± 1.8
301.51 K, 940.4 kPa | 1290.78 ± 1.8
303 K, 100 kPa | 1289.6 ± 0.55
308.05 K, 100 kPa | 1285.34 ± 0.55
308.93 K, 10526 kPa | 1290.11 ± 1.8
308.93 K, 30141 kPa | 1300.53 ± 1.8
309.51 K, 50444 kPa | 1310.89 ± 1.8
313.17 K, 100 kPa | 1280.96 ± 0.55
316.34 K, 18783 kPa | 1289.47 ± 1.8
317.93 K, 100 kPa | 1277.34 ± 0.55
318.19 K, 41900 kPa | 1299.68 ± 1.8
318.48 K, 1643.7 kPa | 1277.43 ± 1.8
323.16 K, 100 kPa | 1273.19 ± 0.55
325.52 K, 47639 kPa | 1299.1 ± 1.8
325.7 K, 29844 kPa | 1288.64 ± 1.8
325.86 K, 10002 kPa | 1276.79 ± 1.8
328.09 K, 100 kPa | 1269.64 ± 0.55
333.28 K, 100 kPa | 1265.48 ± 0.55
334.93 K, 20139 kPa | 1276.01 ± 1.8
336.11 K, 41946 kPa | 1287.71 ± 1.8
336.59 K, 1430 kPa | 1262.76 ± 1.8
338.63 K, 100 kPa | 1261.76 ± 0.55
343.3 K, 100 kPa | 1257.98 ± 0.55
344.61 K, 1230.6 kPa | 1256.88 ± 1.8
345.06 K, 10024 kPa | 1262.06 ± 1.8
345.06 K, 30866 kPa | 1275.14 ± 1.8
347.93 K, 50753 kPa | 1286.78 ± 1.8
348.55 K, 100 kPa | 1254.47 ± 0.55
353.15 K, 18882 kPa | 1261.36 ± 1.8
353.15 K, 40148 kPa | 1274.42 ± 1.8
353.16 K, 10034 kPa | 1256.16 ± 1.8
353.61 K, 100 kPa | 1250.75 ± 0.55
358.19 K, 100 kPa | 1247.22 ± 0.55
364.46 K, 100 kPa | 1242.36 ± 0.55

CCCCCCCCCCCCCC[P+](CCCCCC)(CCCCCC)CCCCCC.N#C[N-]C#N [tetradecyl(trihexyl)phosphonium dicyanamide]
Conditions | mass density [kg/m3]
240.45 K, 9948.1 kPa | 936.26 ± 2.5
247.9 K, 20013 kPa | 935.78 ± 2.5
248.45 K, 1061.1 kPa | 928.34 ± 2.4
255.19 K, 9753 kPa | 927.91 ± 2.4
255.47 K, 29932 kPa | 935.43 ± 2.5
255.48 K, 30358 kPa | 935.75 ± 2.5
262.34 K, 100 kPa | 919.18 ± 2.4
263.19 K, 40368 kPa | 935.25 ± 2.5
263.31 K, 20048 kPa | 927.4 ± 2.4
265.01 K, 1331.4 kPa | 918.74 ± 2.4
268.5 K, 100 kPa | 915.58 ± 2.4
271.01 K, 49601 kPa | 934.43 ± 2.4
271.54 K, 9121.6 kPa | 918.33 ± 2.4
271.95 K, 29894 kPa | 926.34 ± 2.4
273.37 K, 100 kPa | 912.9 ± 2.3
278.2 K, 100 kPa | 910.1 ± 2.3
279.99 K, 39498 kPa | 925.84 ± 2.4
280.34 K, 20094 kPa | 917.77 ± 2.4
281.41 K, 1813.9 kPa | 908.67 ± 2.3
283.3 K, 100 kPa | 907.06 ± 2.3
288.09 K, 48847 kPa | 925.34 ± 2.4
288.37 K, 100 kPa | 904.29 ± 2.3
289.04 K, 30059 kPa | 917.24 ± 2.4
289.74 K, 10390 kPa | 908.18 ± 2.3
293.14 K, 100 kPa | 901.37 ± 2.3
297.73 K, 39781 kPa | 916.7 ± 2.4
298.14 K, 20028 kPa | 907.66 ± 2.3
298.15 K, 119.7 kPa | 898.63 ± 2.3
298.21 K, 100 kPa | 898.81 ± 2.3
298.4 K, 1119.7 kPa | 898.73 ± 2.3
303.08 K, 100 kPa | 895.87 ± 2.2
306.53 K, 28505 kPa | 907.16 ± 2.3
307.06 K, 9995.2 kPa | 898.22 ± 2.3
307.27 K, 49935 kPa | 916.12 ± 2.4
308.18 K, 100 kPa | 892.91 ± 2.2
313.09 K, 100 kPa | 890.2 ± 2.2
316.64 K, 19643 kPa | 897.65 ± 2.3
316.65 K, 39471 kPa | 906.55 ± 2.3
318.03 K, 100 kPa | 887.53 ± 2.2
318.37 K, 1160.7 kPa | 887.84 ± 2.2
323.32 K, 100 kPa | 884.69 ± 2.2
327.54 K, 49978 kPa | 905.9 ± 2.3
327.66 K, 10032 kPa | 887.3 ± 2.2
327.67 K, 30114 kPa | 897.01 ± 2.3
328.16 K, 100 kPa | 881.94 ± 2.2
332.96 K, 100 kPa | 879.42 ± 2.2
338.03 K, 100 kPa | 876.79 ± 2.2
338.23 K, 19830 kPa | 886.69 ± 2.2
338.63 K, 41032 kPa | 896.36 ± 2.3
339.22 K, 1500.6 kPa | 876.45 ± 2.2
342.86 K, 100 kPa | 873.89 ± 2.1
348.12 K, 100 kPa | 871.1 ± 2.1
348.37 K, 49973 kPa | 895.79 ± 2.2
349.27 K, 10043 kPa | 875.89 ± 2.2
349.28 K, 29863 kPa | 886.05 ± 2.2
353.28 K, 100 kPa | 868.29 ± 2.1
358 K, 100 kPa | 865.81 ± 2.1
364.53 K, 100 kPa | 862.18 ± 2.1

Conditions | surface tension liquid-gas
283.57 K | 32.46 ± 0.73 mN/m
283.61 K | 32.69 ± 0.73 mN/m
288.08 K | 32.54 ± 0.73 mN/m
288.09 K | 31.93 ± 0.72 mN/m
293.35 K | 31.85 ± 0.71 mN/m
293.41 K | 32.02 ± 0.72 mN/m
298.2 K | 31.68 ± 0.71 mN/m
298.24 K | 31.82 ± 0.71 mN/m
303.15 K | 30.98 ± 0.7 mN/m
303.2 K | 31.32 ± 0.7 mN/m
308.16 K | 30.28 ± 0.68 mN/m
308.17 K | 30.84 ± 0.69 mN/m
313.21 K | 29.67 ± 0.67 mN/m
313.25 K | 30.4 ± 0.68 mN/m
318.29 K | 29.57 ± 0.67 mN/m
318.3 K | 30.08 ± 0.68 mN/m
323.33 K | 29.65 ± 0.67 mN/m
323.39 K | 29.41 ± 0.66 mN/m
328.05 K | 28.72 ± 0.65 mN/m
328.09 K | 29.18 ± 0.66 mN/m
333.58 K | 28.62 ± 0.65 mN/m and 28.77 ± 0.65 mN/m
338.55 K | 28.21 ± 0.64 mN/m
338.57 K | 28.35 ± 0.64 mN/m
343.55 K | 27.83 ± 0.63 mN/m
343.57 K | 27.93 ± 0.63 mN/m
348.56 K | 27.59 ± 0.63 mN/m
348.64 K | 27.56 ± 0.63 mN/m
353.46 K | 26.45 ± 0.6 mN/m
353.49 K | 27.11 ± 0.62 mN/m
358.44 K | 26.17 ± 0.62 mN/m
358.57 K | 26.7 ± 0.63 mN/m
365.15 K | 25.74 ± 0.59 mN/m
365.21 K | 26.14 ± 0.6 mN/m
